Test results as given in article PMC10525456, “A Comparative Study on Cyclodextrin Derivatives in Improving Oral Bioavailability of Etoricoxib as a Model Drug: Formulation and Evaluation of Solid Dispersion-Based Fast-Dissolving Tablets” (Biomedicines, 2023).
In brackets after ≈: the same amount, converted by molar mass. Like-named read-outs stand apart in the source and are kept apart here.

Assay: Saturation solubility
Type: physicochemical
Description: For 48 h, a known excess of the samples (etoricoxib solid dispersions, physical mixtures, and pure etoricoxib) containing 10 mg of etoricoxib was mixed with 10 mL of phosphate buffer (pH = 6.8) and 0.1 N HCL (pH = 1.2) and placed in a constant-temperature rotating water bath (Gyromax—Frederick, MD, USA) set to 50 rpm (37 ± 0.5 °C). The samples were then filtered, diluted, and analyzed at 233 nm using a UV-VIS spectrophotometer (Shimadzu). The concentration of etoricoxib was then estimated. The experiment was carried out three times.

Question: Which results are given for Cc1ccc(-c2ncc(Cl)cc2-c2ccc(S(C)(=O)=O)cc2)cn1 [Pure Etoricoxib, 5-chloro-6’-methyl-3-[4-(methylsulfonyl)phenyl]-2,3-bipyridine]?
Answer: solubility at 48 h (0.1 N HCl, pH 1.2, pure drug, 0.1 N HCL pH 1.2, 37 °C, read-out: Saturation solubility of pure etoricoxib in 0.1 N HCL pH(1.2)): 73.8 µg/mL (≈ 206 µM); solubility at 48 h (phosphate buffer, pH 6.8, pure drug, phosphate buffer pH 6.8, 37 °C, read-out: Saturation solubility of pure etoricoxib in Phosphate buffer pH(6.8)): 71.1 µg/mL (≈ 198 µM); Saturation solubility of pure etoricoxib in Phosphate buffer pH(6.8) (pure drug, phosphate buffer pH 6.8, 37 °C, 48 h): 71.12 μg/mL ± 1.23
